{
  "source": "patent US6534480B2",
  "about": "“Compositions for increasing energy in vivo” (Bioenergy Inc., priority 1999, dated 2003)",
  "key": {"adenine salvage pathway": {"system": "adenine salvage pathway", "test": "Adenine salvage (formation of ATP) in perfused resting rat plantaris muscle, ribose dose response", "format": "in vivo, Sprague-Dawley rats", "conditions": "for salvage of adenine (formation of ATP), Observed: 30 minutes", "procedure": "It has been theorized but not objectively shown that ribose, via PRPP synthesis, increases the rate of ATP synthesis via the nucleotide salvage pathway. […] The muscle was perfused with reconstituted blood medium at ˜40 ml/min, providing tissue perfusion of approximately 0.65 ml/min. Varying concentrations of D-ribose were added to the perfusate to bring the concentration to 0.156 mM, 0.5 mM, 1.58 mM, 5.0 mM and 15.0 mM. The muscle was perfused for 30 minutes. A minimum of two rats was used for analysis at each dose of ribose tested. Following perfusion, muscle sections were quickly dissected from the limb and freeze-clamped with aluminum tongs chilled in liquid nitrogen. Muscle sections were lyophilized and reconstituted in distilled water for subsequent-separation of adenine nucleotides by reverse-phase high pressure liquid chromatography. Results are expressed as salvage of adenine (i.e., formation of ATP) in nanomoles salvaged per gram wet weight of muscle per hour (nM/gm/hr)."}, "[1]": {"test": "Sprint power output and well-being in normal untrained subjects (planned)", "format": "in vivo, human", "conditions": "5 grams of D-ribose in 200 ml. of water after each sprint bout", "text": "D-ribose, given immediately before and during exercise, can provide a benefit to those subjects who have not been previously trained. Four healthy, normal male volunteers will be tested for sprint power output on an exercycle, as for Example 2 above. Each subject will serve as their own control. Between the sprint bouts, the subjects will cycle slowly and continuously. Total test time will be one hour, with four sprint bouts during the test. Following the initial baseline test and following each sprint bout, the subjects will be given 5 grams of D-ribose in 200 ml. of water or a similar tasting placebo (glucose). Sprint power output will be tested 15 minutes after each ingesting of the test solutions. Each subject will undergo two sessions, one week apart, one with ribose and one with placebo, in randomized order. The placebo will be sweetened with glucose in order to be indistinguishable from the ribose solution."}, "[2]": {"test": "Exercise induced angina, single patient with coronary artery disease", "format": "in vivo, human", "text": "A patient with a history of coronary artery disease, status post triple coronary artery bypass, experienced exercise induced angina. Their present medications are: enalapril (an angiotensin converting enzyme inhibitor), carvedilol (a β blocking agent), nitroglycerine patch and nitroglycerine tablets sublingual as needed. […] The patient performed poorly on two stress tests. Their exercise regimen consisted of a daily walk. Due to the development of angina, the patient was able to walk less than one mile per day, at which point they took sublingual nitroglycerine. The patient was given oral D-ribose dissolved in about 250 cc. of water. Over a six-month period, the patient received intermittent doses of 5-10 grams per day of D-ribose. […] When the ribose was discontinued, their pre-ribose, anginal-inducing exercise state recurred, which necessitated the use of supplemental oral nitroglycerine."}, "[3]": {"test": "Self administration of ribose, subject with low energy after systemic bacterial infection", "format": "in vivo, human", "text": "An example of a subject having no overt disease who benefitted from self-administered ribose is a person. They had adhered to a strict weekly exercise regimen most of their life until sustaining a systemic bacterial infection, which required admission to the intensive care unit for one month and rehabilitation for an additional month. Their cardiovascular and pulmonary systems were predominantly affected during and following their illness and function had not recovered to its previous levels, or to their satisfaction, after one year.\nFollowing convalescence, they have attempted to resume an exercise regimen, which involves running on a treadmill four days a week and lifting weights for two days a week. The runs were restricted to short intervals. Following the daily exercises, they have continuously experienced fatigue to the point of exhaustion and has required frequent naps. The patient began self-administering oral D-ribose at two doses per day, 4-5 grams per dose. Within seven days, they testified that their “pep” and exercise tolerance increased. For the first time since their illness, they are able to run as long as 30 minutes on the treadmill. They still experience a Degree of fatigue, but has been able to discontinue the naps after exercise. They continue on the daily oral doses of ribose, along with their scheduled exercises and feels a continuing improvement in their energy level after four weeks of ribose administration."}, "ATP": {"system": "ATP", "conditions": "heart recovering from ischemia, intravenous perfusion; cited from earlier work"}, "de novo synthesis of AMP": {"system": "de novo synthesis of AMP", "conditions": "ribose added to the perfusate; cited from earlier work"}},
  "data": [
    {"smiles": "O=C[C@H](O)[C@H](O)[C@H](O)CO", "note": "[Ribose, D-ribose]", "values": [
      {"measurement": "adenine salvage relative to zero mM ribose", "setting": "adenine salvage pathway; 0.158 mM ribose", "value": "doubles"},
      {"measurement": "salvage of adenine, Saturation Kinetics with Base", "setting": "adenine salvage pathway; 0.158 mM ribose", "value": 85.82, "unit": "nM/gm/hr"},
      {"measurement": "salvage of adenine (formation of ATP), Observed", "setting": "adenine salvage pathway; 0.158 mM ribose in perfusate", "value": 113.0, "unit": "nM/gm/hr"},
      {"measurement": "salvage of adenine, Saturation Kinetics with Base", "setting": "adenine salvage pathway; 0.500 mM ribose", "value": 118.68, "unit": "nM/gm/hr"},
      {"measurement": "salvage of adenine (formation of ATP), Observed", "setting": "adenine salvage pathway; 0.500 mM ribose in perfusate", "value": 110.0, "unit": "nM/gm/hr"},
      {"measurement": "salvage of adenine, Saturation Kinetics with Base", "setting": "adenine salvage pathway; 1.000 mM ribose", "value": 154.12, "unit": "nM/gm/hr"},
      {"measurement": "salvage of adenine, Saturation Kinetics with Base", "setting": "adenine salvage pathway; 1.580 mM ribose", "value": 183.51, "unit": "nM/gm/hr"},
      {"measurement": "salvage of adenine (formation of ATP), Observed", "setting": "adenine salvage pathway; 1.580 mM ribose in perfusate", "value": 188.5, "unit": "nM/gm/hr"},
      {"measurement": "salvage of adenine, Saturation Kinetics with Base", "setting": "adenine salvage pathway; 2.000 mM ribose", "value": 199.74, "unit": "nM/gm/hr"},
      {"measurement": "salvage of adenine, Saturation Kinetics with Base", "setting": "adenine salvage pathway; 2.500 mM ribose", "value": 215.29, "unit": "nM/gm/hr"},
      {"measurement": "salvage of adenine, Saturation Kinetics with Base", "setting": "adenine salvage pathway; 3.000 mM ribose", "value": 227.85, "unit": "nM/gm/hr"},
      {"measurement": "salvage of adenine, Saturation Kinetics with Base", "setting": "adenine salvage pathway; 5.000 mM ribose", "value": 260.68, "unit": "nM/gm/hr"},
      {"measurement": "salvage of adenine (formation of ATP), Observed", "setting": "adenine salvage pathway; 5.000 mM ribose in perfusate", "value": 250.0, "unit": "nM/gm/hr"},
      {"measurement": "salvage of adenine (formation of ATP), Observed", "setting": "adenine salvage pathway; 5.000 mM ribose in perfusate, listed as ribose", "value": 250, "unit": "nM/gm/hr"},
      {"measurement": "salvage of adenine, Saturation Kinetics with Base", "setting": "adenine salvage pathway; 15.000 mM ribose", "value": 310.37, "unit": "nM/gm/hr"},
      {"measurement": "salvage of adenine (formation of ATP), Observed", "setting": "adenine salvage pathway; 15.000 mM ribose in perfusate", "value": 315.5, "unit": "nM/gm/hr"},
      {"measurement": "subjective feeling of well being", "setting": "[1]", "value": "subjectively higher feeling of well being"},
      {"measurement": "sprint power output after ribose vs placebo", "setting": "[1]; sustained mild exercise", "value": "higher power output"},
      {"measurement": "patient's subjective evaluation of the ribose treatment", "setting": "[2]; oral D-ribose 5-10 grams per day", "value": "much less angina pain"},
      {"measurement": "exercise tolerance (daily walk) without nitroglycerine", "setting": "[2]; oral D-ribose 5-10 grams per day intermittent over six months, before: less than one mile per day", "value": "two miles per day"},
      {"measurement": "adverse effects", "setting": "[3]; four weeks of oral ribose administration", "value": "no adverse effects"},
      {"measurement": "time able to run on the treadmill", "setting": "[3]; oral D-ribose two doses per day, 4-5 grams per dose", "value": "≤ 30", "unit": "min"},
      {"measurement": "\"pep\" and exercise tolerance", "setting": "[3]; within seven days of oral D-ribose, two doses per day, 4-5 grams per dose", "value": "increased"},
      {"measurement": "recovery of ATP levels", "setting": "ATP", "value": "enhanced"},
      {"measurement": "de novo synthesis of AMP in sedentary muscle", "setting": "de novo synthesis of AMP", "value": "increases the de novo synthesis of AMP"},
      {"measurement": "decline in de novo synthesis in contracting muscle", "setting": "de novo synthesis of AMP", "value": "does not eliminate the decline"}
    ]}
  ]
}
